US12391671B2, “Allosteric EGFR inhibitors and methods of use thereof” (Dana-Farber Cancer Institute, Inc., priority 2019, dated 2025)
Counter-ions that a name gives are not always drawn. Like-named read-outs stand apart in the source and are kept apart here.

Columns and labels:
[1] = target: EGFR L858R/T790M (Homo sapiens (Human), UniProt P00533, L858R/T790M); experiment: HTRF-based EGFR biochemical assay (L858R/T790M); conditions: 100 μM ATP, enzyme 0.02 nM
Method in brief: (§1)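 Mutant EGFR (L858R 0.1 nM, L858R/T790M 0.02 nM) preincubated 30 min with compounds at room temperature in HEPES pH 7.0 buffer with Mg2+/Mn2+, then reacted 20 min with 1 μM biotinylated tyrosine kinase peptide and 100 μM ATP. Phosphorylation read by HTRF (Eu-cryptate anti-phosphotyrosine/streptavidin-XL665, 665/620 nm) after EDTA quench.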

[2] = target: EGFR L858R (Homo sapiens (Human), UniProt P00533, L858R); experiment: HTRF-based EGFR biochemical assay (L858R); conditions: 100 μM ATP, enzyme 0.1 nM
EGFR L858R, sequence (P00533 25-1210 L858R): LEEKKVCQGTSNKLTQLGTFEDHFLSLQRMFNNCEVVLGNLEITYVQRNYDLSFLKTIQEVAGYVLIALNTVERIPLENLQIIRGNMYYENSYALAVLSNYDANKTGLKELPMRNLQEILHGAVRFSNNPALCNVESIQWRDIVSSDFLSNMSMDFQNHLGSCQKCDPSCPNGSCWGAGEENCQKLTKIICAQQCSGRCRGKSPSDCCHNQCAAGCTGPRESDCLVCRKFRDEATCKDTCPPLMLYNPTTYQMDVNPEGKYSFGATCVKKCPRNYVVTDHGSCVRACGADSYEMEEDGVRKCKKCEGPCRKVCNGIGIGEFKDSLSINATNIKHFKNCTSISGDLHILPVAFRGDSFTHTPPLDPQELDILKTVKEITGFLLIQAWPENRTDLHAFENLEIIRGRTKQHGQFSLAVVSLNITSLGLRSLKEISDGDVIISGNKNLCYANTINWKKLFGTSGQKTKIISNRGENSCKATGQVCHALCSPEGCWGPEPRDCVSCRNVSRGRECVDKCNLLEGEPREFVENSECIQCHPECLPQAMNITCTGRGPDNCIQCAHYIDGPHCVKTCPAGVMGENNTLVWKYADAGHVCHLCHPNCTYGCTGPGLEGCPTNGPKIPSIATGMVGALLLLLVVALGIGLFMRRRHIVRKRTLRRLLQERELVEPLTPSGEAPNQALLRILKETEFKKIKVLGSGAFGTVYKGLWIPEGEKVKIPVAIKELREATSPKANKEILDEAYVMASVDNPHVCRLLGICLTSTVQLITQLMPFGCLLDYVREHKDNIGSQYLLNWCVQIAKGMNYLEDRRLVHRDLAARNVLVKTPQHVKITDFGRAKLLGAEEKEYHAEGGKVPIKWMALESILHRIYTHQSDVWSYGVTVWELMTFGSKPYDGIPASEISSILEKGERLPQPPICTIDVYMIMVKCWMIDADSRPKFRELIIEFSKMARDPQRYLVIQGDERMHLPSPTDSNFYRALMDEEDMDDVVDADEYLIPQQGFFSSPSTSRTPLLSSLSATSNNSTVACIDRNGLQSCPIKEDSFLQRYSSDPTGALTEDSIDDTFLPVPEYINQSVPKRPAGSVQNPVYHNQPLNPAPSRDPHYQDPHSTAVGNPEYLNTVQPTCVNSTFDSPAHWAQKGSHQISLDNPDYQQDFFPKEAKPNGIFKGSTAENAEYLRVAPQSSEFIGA
Method in brief: as §1

[3] = test system: EGFR mutant L858R/T790M Ba/F3 cells; experiment: Ba/F3 cell proliferation model (Cell Titer Glo), EGFR L858R/T790M; assay type: cell-based, murine; conditions: 72 hours
Method in brief: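 Retrovirally transduced Ba/F3 cells exposed 72 h to compound alone or with 1 μg/mL cetuximab, triplicate points, repeated at least three times. Viability by Cell Titer Glo luminescence (ATP); curves fitted by non-linear sigmoidal dose-response regression.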

[4] = test system: EGFR mutant L858R Ba/F3 cells; experiment: Ba/F3 cell proliferation model (Cell Titer Glo), EGFR L858R; assay type: cell-based, murine; conditions: 72 hours
Excerpt: Example 26: Ba/F3 Cell Proliferation Models
The EGFR mutant L858R and L858R/T790M Ba/F3 cells have been previously described (Zhou, W., et al. Nature 462, 2009, 1070-1074). All cell lines were maintained in RPM 1640 (Cellgro; Mediatech Inc., Herndon. CA) supplemented with 10% FBS, 100 units/mL penicillin, 100 units/mL streptomycin. The EGFR I941R mutation was introduced via site directed mutagenesis using the Quick Change Site-Directed Mutagenesis kit (Stratagene; La Jolla, CA) according to the manufacturer's instructions. All constructs were confirmed by DNA sequencing. The constructs were shuttled into the retroviral vector JP1540 using the Cre-recombination system (Agilent Technologies, Santa Clara, CA). Ba/F3 cells were then infected with retrovirus per standard protocols, as described previously (Zhou, et al, Nature 2009). Stable clones were obtained by selection in puromycin (2 μg/ml).
Growth and inhibition of growth was assessed by the Cell Titer Glo® assay (Promega, Madison, WI) and was performed according to the manufacturer's instructions. The Cell Titer Glo® assay is a luminescence-based method used to determine the number of viable cells based on quantitation of the ATP present, which is directly proportional to the amount of metabolically active cells present. Ba/F3 cells of different EGFR genotypes were exposed to compounds as a single agent or in combination with 1 μg/mL cetuximab for 72 hours and the number of cells used per experiment was determined empirically as has been previously established (Zhou, et al., Nature 2009). All experimental points were set up in triplicates in 384-well plates and all experiments were repeated at least three times. […] The curves were fitted using a non-linear regression model with a sigmoidal dose response.

[5] = Mus musculus, BaF3, single agent, read-out: Cell IC50 BaF3 EGFR L858R/T790M
[6] = in combination with 1 μg/mL cetuximab, read-out: Cell IC50 BaF3 EGFR L858R/T790M (+cetux.)
[7] = Mus musculus, BaF3, single agent, read-out: Cell IC50 BaF3 EGFR L858R
[8] = in combination with 1 μg/mL cetuximab, read-out: Cell IC50 BaF3 EGFR L858R (+cetux.)

EGFR L858R/T790M, sequence (P00533 25-1210 T790M/L858R): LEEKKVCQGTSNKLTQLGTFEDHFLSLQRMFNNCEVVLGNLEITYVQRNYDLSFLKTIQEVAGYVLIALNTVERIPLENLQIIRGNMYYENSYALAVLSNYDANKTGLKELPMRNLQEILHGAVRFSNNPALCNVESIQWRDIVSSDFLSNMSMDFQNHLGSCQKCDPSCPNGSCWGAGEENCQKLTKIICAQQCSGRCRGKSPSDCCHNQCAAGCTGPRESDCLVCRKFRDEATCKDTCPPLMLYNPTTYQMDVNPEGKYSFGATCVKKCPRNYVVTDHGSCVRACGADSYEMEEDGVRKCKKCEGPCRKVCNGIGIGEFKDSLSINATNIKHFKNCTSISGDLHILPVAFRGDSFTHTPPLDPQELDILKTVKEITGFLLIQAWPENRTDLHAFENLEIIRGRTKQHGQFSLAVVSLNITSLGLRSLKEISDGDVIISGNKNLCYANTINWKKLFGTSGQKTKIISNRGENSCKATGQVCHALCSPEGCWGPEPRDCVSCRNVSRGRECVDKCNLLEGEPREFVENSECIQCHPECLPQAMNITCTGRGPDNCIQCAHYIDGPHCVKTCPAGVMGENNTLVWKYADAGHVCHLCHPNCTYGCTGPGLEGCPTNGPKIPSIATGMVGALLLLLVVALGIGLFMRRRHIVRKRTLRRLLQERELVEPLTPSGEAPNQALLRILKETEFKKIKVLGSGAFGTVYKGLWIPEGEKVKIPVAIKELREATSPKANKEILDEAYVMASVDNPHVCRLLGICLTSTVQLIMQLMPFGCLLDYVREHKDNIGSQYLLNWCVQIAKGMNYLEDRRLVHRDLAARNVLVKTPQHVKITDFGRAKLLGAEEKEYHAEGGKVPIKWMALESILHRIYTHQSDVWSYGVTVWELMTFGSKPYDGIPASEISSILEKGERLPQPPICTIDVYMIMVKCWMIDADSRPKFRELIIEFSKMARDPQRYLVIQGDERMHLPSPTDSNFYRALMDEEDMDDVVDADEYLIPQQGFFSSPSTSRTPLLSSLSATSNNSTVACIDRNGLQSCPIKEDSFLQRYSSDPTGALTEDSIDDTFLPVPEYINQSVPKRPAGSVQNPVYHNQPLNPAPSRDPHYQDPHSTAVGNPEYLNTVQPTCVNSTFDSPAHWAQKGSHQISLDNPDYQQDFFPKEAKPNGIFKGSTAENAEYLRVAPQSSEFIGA

Row | SMILES | IC50 [1] | IC50 [2] | IC50 [3, 5] | IC50 [3, 6] | IC50 [4, 7] | IC50 [4, 8]
1 | CN1CCC(c2ccc(-c3ccc4c(=O)n(C(c5nc6ccccc6[nH]5)c5cc(F)ccc5O)ccc4c3)cc2)CC1 (racemic) [Compound 069, Rac-2-(1H-1,3-benzodiazol-2-yl)(5-fluoro-2-hydroxyphenyl)methyl]-6-[4-(1-methylpiperidin-4-yl)phenyl]-1,2-dihydroisoquinolin-1-one] | 5 nM | 9 nM | 520 nM | 10 nM | 360 nM | –
2 | CN1CCC(c2ccc(-c3cc(F)c4c(=O)n([C@@H](c5nc6ccccc6[nH]5)c5cc(F)ccc5O)ccc4c3)cc2)CC1 (single isomer, unassigned) [Compound 065] | 0.5 nM | 2 nM | 30 nM | – | 130 nM | –
3 | CN1CCC(c2ccc(-c3ccc4c(c3)C(=S)N([C@@H](c3nc5ccccc5[nH]3)c3cc(F)ccc3O)C4)cc2)CC1 (single isomer, unassigned) [Compound 083] | 0.6 nM | 1 nM | 200 nM | – | 630 nM | –
4 | CN1CCC(c2ccc(-c3ccc4c(c3)C(=O)N(C(c3nc5cccc(F)c5[nH]3)c3cc(F)ccc3O)C4)cc2)CC1 (centres unmarked) [Compound 020, 2-[(7-Fluoro-1H-benzimidazol-2-yl)-(5-fluoro-2-hydroxy-phenylmethyl]-6-(4-(1-methy-4-piperidyl)phenyl]isoindolin-1-one; hydrochloride] | – | – | 440 nM | 6 nM | 1360 nM | 170 nM
5 | CN1CCC(c2ccc(-c3ccc4c(c3F)C(=O)N(C(c3nc5ccccc5[nH]3)c3cc(F)ccc3O)C4)cc2)CC1 (centres unmarked) [Compound 032, 2-[1H-benzimidazol-2-yl-(5-fluoro-2-hydroxy-phenyl)methyl]-7-fluoro-6-[4-(1-methyl-4-piperidyl)phenyl]isoindolin-1-one;hydrochloride] | – | – | 210 nM | 7 nM | 960 nM | 50 nM
6 | COc1cccc2[nH]c(C(c3cc(F)ccc3O)N3Cc4ccc(-c5ccc(C6CCN(C)CC6)cc5)cc4C3=O)nc12 (centres unmarked) [Compound 051] | 1 nM | 10 nM | 3920 nM | 1050 nM | – | –
7 | Cc1cccc2[nH]c(C(c3cc(F)ccc3O)N3Cc4ccc(-c5ccc(C6CCN(C)CC6)cc5)cc4C3=O)nc12 (centres unmarked) [Compound 052, 2-[(5-fluoro-2-hydroxy-phenyl)-(4-methyl-1H-benzimidazol-2-yl)methyl]-6-[4-(1-methyl-4-piperidyl)phenyl]isoindolin-1-one; formic acid] | 2 nM | 5 nM | 4180 nM | 370 nM | – | –
8 | CN1CCC(c2ccc(-c3ccc4c(=O)n(C(c5nc6ccccc6[nH]5)c5cc(F)ccc5O)cc(F)c4c3)cc2)CC1 (centres unmarked) [Compound 053, 2-[1H-benzimidazol-2-yl-(5-fluoro-2-hydroxy-phenyl)-methyl]-4-fluoro-6-[4-(1-methyl-4-piperidyl)phenyl]isoquinolin-1-one; hydrochloride] | 1 nM | 6 nM | 560 nM | 5 nM | – | –
9 | CN1CCC(c2ccc(-c3ccc4c(F)cn(C(c5nc6ccccc6[nH]5)c5cc(F)ccc5O)c(=O)c4c3)cc2)CC1 (centres unmarked) [Compound 054, 2-[1H-benzimidazol-2-yl-(5-fluoro-2-hydroxy-phenyl)-methyl]-4-fluoro-7-[4-(1-methy-4-piperidyl)phenyl]isoquinolin-1-one] | 0.4 nM | 2 nM | 1060 nM | 20 nM | – | –
10 | Cc1c(-c2ccc(C3CCN(C)CC3)cc2)ccc2ncn(C(c3nc4ccccc4[nH]3)c3cc(F)ccc3O)c(=O)c12 (centres unmarked) [Compound 055, 3-[1H-benzimidazol-2-yl-(5-fluoro-2-hydroxy-phenyl)-methyl]-5-methyl-6-[4-(1-methyl-4-piperidyl)phenyl]-quinazolin-4-one; dihydrochloride] | 1 nM | 2 nM | 100 nM | 10 nM | – | –
11 | CN1CC(Oc2ccc(-c3ccc4c(c3)C(=O)N(C(c3nc5ccccc5[nH]3)c3cc(F)ccc3O)C4)cc2)C1 (centres unmarked) [Compound 056, 2-[1H-benzimidazol-2-yl-(5-fluoro-2-hydroxy-phenyl)methyl]-6-[4-(1-methylazetidin-3-yl)oxyphenyl]isoindolin-1-one;dihydrochloride] | 8 nM | 12 nM | 1280 nM | 10 nM | – | –
12 | O=C1c2cc(-c3ccc(-c4cn[nH]c4)cc3)ccc2CN1C(c1nc2ccccc2[nH]1)c1cc(F)ccc1O (centres unmarked) [Compound 057, 2-[1H-benzimidazol-2-yl-(5-fluoro-2-hydroxy-phenyl)-methyl]-6-[4-(1H-pyrazol-4-yl)-phenyl]isoindolin-1-one] | 17 nM | 37 nM | 550 nM | 10 nM | – | –
13 | Cn1cc(-c2ccc(-c3ccc4c(c3)C(=O)N(C(c3nc5ccccc5[nH]3)c3cc(F)ccc3O)C4)cc2)cn1 (centres unmarked) [Compound 058, 2-[1H-benzimidazol-2-yl-(5-fluoro-2-hydroxy-phenyl)-methyl]-6-[4-(1-methylpyrazol-4-yl)phenyl]isoindolin-1-one; dihydrochloride] | 12 nM | 67 nM | 1420 nM | 20 nM | – | –
14 | O=C1c2cc(-c3ccc(N4CCOCC4)cc3)ccc2CN1C(c1nc2ccccc2[nH]1)c1cc(F)ccc1O (centres unmarked) [Compound 059, 2-(1H-benzimidazol-2-yl-(5-fluoro-2-hydroxy-phenyl)-methyl]-6-(4-morpholinopheny)-isoindolin-1-one; hydrochloride] | 13 nM | > 100 nM | 790 nM | 10 nM | – | –
15 | CN1CCC(n2cc(-c3ccc4c(c3)C(=O)N(C(c3nc5ccccc5[nH]3)c3cc(F)ccc3O)C4)cn2)CC1 (centres unmarked) [Compound 060, 2-[1H-benzimidazol-2-yl-(5-fluoro-2-hydroxy-phenyl)-methyl]-6-[1-(1-methyl-4-piperidyl)pyrazol-4-yl]isoindolin-1-one; hydrochloride] | 18 nM | 27 nM | 5500 nM | 110 nM | – | –
16 | Nc1ccc(-c2ccc(-c3ccc4c(c3)C(=O)N(C(c3nc5ccccc5[nH]3)c3cc(F)ccc3O)C4)cc2)cn1 (centres unmarked) [Compound 061, 6-[4-(6-amino-3-pyridyl)phenyl]-2-[1H-benzimidazol-2-yl-(5-fluoro-2-hydroxy-phenyl)-methyl]isoindolin-1-one; hydrochloride] | 11 nM | 69 nM | 790 nM | 20 nM | – | –
17 | O=C1c2cc(-c3ccc(C4CCNCC4)cc3)ccc2CN1C(c1nc2ccccc2[nH]1)c1cc(F)ccc1O (centres unmarked) [Compound 062, 2-[1H-benzimidazol-2-yl-(5-fluoro-2-hydroxy-phenyl)-methyl]-6-[4-(4-piperidyl)-phenyl]isoindolin-1-one; hydrochloride] | 0.7 nM | 3 nM | 650 nM | 20 nM | – | –
18 | CN1CCC(c2ccc(-c3ccc4c(c3F)C(=O)N(C(c3nc5c(F)cccc5[nH]3)c3cc(F)ccc3O)C4)cc2F)CC1 (centres unmarked) [Compound 081, 7-fluoro-2-[(4-fluoro-1H-benzimidazol-2-yl)-(5-fluoro-2-hydroxy-phenyl)methyl]-6-[3-fluoro-4-(1-methyl-4-piperidyl)phenyl]isoindolin-1-one; dihydrochloride] | 0.8 nM | 6 nM | 210 nM | – | – | –
19 | Cc1nnc(C(c2cc(F)ccc2O)N2Cc3ccc(-c4ccc(C5CCN(C)CC5)cc4)cc3C2=O)[nH]1 (centres unmarked) [Compound 089, 2-[(5-fluoro-2-hydroxy-phenyl)-(5-methyl-4H-1,2,4-triazol-3-yl)methyl]-6-[4-(1-methyl-4-piperidyl)phenyl]isoindolin-1-one;hydrochloride] | – | – | 5950 nM | – | 4530 nM | –
